Reference: the OligoGym collection
“And” between values parts separate entries of the source, which are not always exact repeats. Equal values may be shown once. After the bases stand the sugars from the 5' end (letter, count) and the backbone: PS all phosphorothioate, else s phosphorothioate and o phosphodiester by linkage. Methylation of C is not given here. e = 2'-O-(2-methoxyethyl) (MOE); k = constrained ethyl (cEt); d = 2'-deoxy (DNA)

Target: SOD1
Conditions: ASO

## TGTTTATCAGGATACAT (sugars e2 k2 d9 k2 e2, PS)
HepG2, 0.1875 µM
  target mRNA inhibition: 37%
HepG2, 0.75 µM
  target mRNA inhibition: 63%
HepG2, 3 µM
  target mRNA inhibition: 83%
HepG2, 4 µM
  target mRNA inhibition: 83%
HepG2, 12 µM
  target mRNA inhibition: 95%

## ATACAAATCTTCCAAGT (sugars e3 k2 d7 k2 e3, PS)
HepG2, 3 µM
  target mRNA inhibition: 15%

## AGTGTTTAATGTTTATCA (sugars e5 d8 e5, linkages s1 o3 s9 o2 s2)
A431, 0.12 µM
  target mRNA inhibition: 2%
A431, 0.6 µM
  target mRNA inhibition: 35%
A431, 3 µM
  target mRNA inhibition: 52%
A431, 15 µM
  target mRNA inhibition: 67%
HepG2, 0.222 µM
  target mRNA inhibition: 33%
HepG2, 0.667 µM
  target mRNA inhibition: 58%
HepG2, 2 µM
  target mRNA inhibition: 74%
HepG2, 6 µM
  target mRNA inhibition: 86%

## AGAAATTCTGACAAGTT (sugars e3 k2 d7 k2 e3, PS)
HepG2, 3 µM
  target mRNA inhibition: 8%

## TTCACAGGCTTGAATGA (sugars e2 k2 d9 k2 e2, PS)
HepG2, 5 µM
  target mRNA inhibition: 16%

## TGAAAAAGTCACACAATTAC (sugars e5 d10 e5, PS)
HepG2, 5 µM
  target mRNA inhibition: 0%

## CACAGGCTTGAATGACA (sugars e2 k2 d9 k2 e2, PS)
HepG2, 5 µM
  target mRNA inhibition: 47%

## AAATCTTCCAAGTGATC (sugars e2 k2 d9 k2 e2, PS)
HepG2, 5 µM
  target mRNA inhibition: 48%

## CAAGTTTAATACCCATC (sugars e2 k2 d9 k2 e2, PS)
HepG2, 5 µM
  target mRNA inhibition: 62%

## GGCCACACCATCTTTGTCAG (sugars e5 d10 e5, PS)
HepG2, 5 µM
  target mRNA inhibition: 23% and 5%

## TACATCCAAGGGAATGT (sugars e3 k2 d7 k2 e3, PS)
HepG2, 3 µM
  target mRNA inhibition: 30%

## CATTTCCACCTTTGCCC (sugars e3 k2 d7 k2 e3, PS)
HepG2, 3 µM
  target mRNA inhibition: 73%

## CTTCCCCACACCTTCA (sugars kekeddddddddekek, linkages s1 o3 s8 o1 s2)
A431, 0.12 µM
  target mRNA inhibition: 0%
A431, 0.6 µM
  target mRNA inhibition: 8%
A431, 3 µM
  target mRNA inhibition: 8%
A431, 15 µM
  target mRNA inhibition: 18%
HepG2, 0.222 µM
  target mRNA inhibition: 8%
HepG2, 0.667 µM
  target mRNA inhibition: 14%
HepG2, 2 µM
  target mRNA inhibition: 51%
HepG2, 6 µM
  target mRNA inhibition: 76%

## CTCCGCGACTACTTTATAGG (sugars e5 d10 e5, PS)
HepG2, 4 µM
  target mRNA inhibition: 27%

## GGCAAAATACAGGTCAT (sugars e3 k2 d7 k2 e3, PS)
HepG2, 3 µM
  target mRNA inhibition: 39%

## TTAATGTTTATCAGGA (sugars kekeddddddddekek, linkages s1 o3 s8 o1 s2)
A431, 0.12 µM
  target mRNA inhibition: 3%
A431, 0.6 µM
  target mRNA inhibition: 45%
A431, 3 µM
  target mRNA inhibition: 65%
A431, 15 µM
  target mRNA inhibition: 81%
HepG2, 0.222 µM
  target mRNA inhibition: 53%
HepG2, 0.667 µM
  target mRNA inhibition: 82%
HepG2, 2 µM
  target mRNA inhibition: 91%
HepG2, 6 µM
  target mRNA inhibition: 96%

## TACAGGTACTTTAAAGC (sugars e2 k2 d9 k2 e2, PS)
HepG2, 5 µM
  target mRNA inhibition: 26%

## ACAGCTAGCAGGATAAC (sugars e3 k2 d7 k2 e3, PS)
HepG2, 3 µM
  target mRNA inhibition: 20%

## ATCCTTTGGCCCACCGT (sugars e3 k2 d7 k2 e3, PS)
HepG2, 3 µM
  target mRNA inhibition: 51%

## TAGCCTCATAATAAGTG (sugars e2 k2 d8 k2 e3, PS)
HepG2, 5 µM
  target mRNA inhibition: 11%

## CATGGAATCCATGCAGG (sugars e3 k2 d7 k2 e3, PS)
HepG2, 3 µM
  target mRNA inhibition: 14%

## GGTTTTTATTCACAGGC (sugars e3 k2 d7 k2 e3, PS)
HepG2, 3 µM
  target mRNA inhibition: 22%

## GATTACAGTGTTTAATG (sugars e2 k2 d8 k2 e3, PS)
HepG2, 5 µM
  target mRNA inhibition: 54%

## GTCGCCCTTCAGCACGC (sugars e2 k2 d9 k2 e2, PS)
HepG2, 4 µM
  target mRNA inhibition: 72%

## GTGCGGCCAATGATGCAATG (sugars e5 d10 e5, PS)
HepG2, 5 µM
  target mRNA inhibition: 12%

## CACTACAGGTACTTTAA (sugars e2 k2 d9 k2 e2, PS)
HepG2, 5 µM
  target mRNA inhibition: 38%

## AGGACCTGCACTGGTAC (sugars e3 k2 d7 k2 e3, PS)
HepG2, 3 µM
  target mRNA inhibition: 4%

## AAGTCTCCAACATGCCTCTC (sugars e5 d10 e5, PS)
HepG2, 5 µM
  target mRNA inhibition: 20% and 6%

## AGTTTCTCACTACAGGT (sugars e2 k2 d9 k2 e2, PS)
HepG2, 5 µM
  target mRNA inhibition: 50%

## CCTTTAATGCTTCCCCACAC (sugars e5 d10 e5, PS)
HepG2, 4 µM
  target mRNA inhibition: 1%

## TCTGTGATTTAAGTCTG (sugars e2 k2 d8 k2 e3, PS)
HepG2, 5 µM
  target mRNA inhibition: 49%

## AATGTTTATCAGGATACATT (sugars e5 d10 e5, PS)
HepG2, 5 µM
  target mRNA inhibition: 54%

## CATCGGCCACACCATCTTTG (sugars e5 d10 e5, PS)
HepG2, 5 µM
  target mRNA inhibition: 34% and 38%

## TCCCCACACCTTCACT (sugars ekddddddddekekee, linkages s1 o1 s8 o3 s2)
A431, 0.12 µM
  target mRNA inhibition: 0%
A431, 0.6 µM
  target mRNA inhibition: 0%
A431, 3 µM
  target mRNA inhibition: 7%
A431, 15 µM
  target mRNA inhibition: 21%
HepG2, 0.222 µM
  target mRNA inhibition: 16%
HepG2, 0.667 µM
  target mRNA inhibition: 34%
HepG2, 2 µM
  target mRNA inhibition: 58%
HepG2, 6 µM
  target mRNA inhibition: 80%

## GCAATGGTCTCCTGAGAGTG (sugars e5 d10 e5, PS)
HepG2, 5 µM
  target mRNA inhibition: 57%

## TTGGATTCTTTTAATAG (sugars e3 k2 d7 k2 e3, PS)
HepG2, 3 µM
  target mRNA inhibition: 8%

## TGAGAGTGAGATCACAGAAT (sugars e5 d10 e5, PS)
HepG2, 5 µM
  target mRNA inhibition: 18%

## TTTTAGTTTGAATTTGG (sugars e3 k2 d7 k2 e3, PS)
HepG2, 3 µM
  target mRNA inhibition: 12%

## GGACCTGCACTGGTACA (sugars e3 k2 d7 k2 e3, PS)
HepG2, 3 µM
  target mRNA inhibition: 7%

## GACACATCGGCCACACCATC (sugars e5 d10 e5, PS)
HepG2, 5 µM
  target mRNA inhibition: 45% and 30%
